Results published in patent US10508120B2, “TYK2 inhibitors and uses thereof” (Nimbus Lakshmi, Inc., priority 2017, dated 2019).

Assays:
[1] = target: human TYK2 (JH2domain-pseudokinase) (Homo sapiens (Human), UniProt P29597); assay: TYK2 JH2 Domain Binding Assay (KINOMEscan)
Procedure, shortened: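 The construct was human TYK2 G556–D888 fused to the NFkB DNA-binding domain and expressed in HEK293 cells; unpurified extract was incubated with compound and liganded beads for 1 hour at room temperature.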

[2] = target: JAK2 kinase domain (JH1) (Homo sapiens (Human), UniProt O60674); assay: JAK2 Radioactive Kinase Assay; type: biochemical; conditions: 10 μM compound, 10 μM ATP; for inhibition at 10 µM: read-out: JAK2 JH1% Inhibition @ 10 μM
Procedure, shortened: (§1)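 Single-point screen: 10 μM test compound, radioactive kinase read-out, percent inhibition reported for each kinase domain.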

[3] = target: Tyk2 kinase domain (DH1) (Homo sapiens (Human), UniProt P29597); assay: Tyk2 Radioactive Kinase Assay; type: biochemical; conditions: 10 μM compound, 10 μM ATP; for inhibition at 10 µM: read-out: Tyk2 JH1% Inhibition @ 10 μM
Procedure, shortened: as §1

human TYK2 (JH2domain-pseudokinase), sequence (P29597 556-888): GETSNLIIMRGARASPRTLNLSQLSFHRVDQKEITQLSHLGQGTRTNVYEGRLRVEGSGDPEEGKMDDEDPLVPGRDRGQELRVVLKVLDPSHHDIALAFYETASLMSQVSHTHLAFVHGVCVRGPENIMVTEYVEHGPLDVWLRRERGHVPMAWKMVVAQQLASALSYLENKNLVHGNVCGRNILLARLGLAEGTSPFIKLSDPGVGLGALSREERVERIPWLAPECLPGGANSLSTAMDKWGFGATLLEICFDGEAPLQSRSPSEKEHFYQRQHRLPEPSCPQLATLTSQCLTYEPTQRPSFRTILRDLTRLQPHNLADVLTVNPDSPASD
JAK2 kinase domain (JH1), sequence (O60674 849-1124): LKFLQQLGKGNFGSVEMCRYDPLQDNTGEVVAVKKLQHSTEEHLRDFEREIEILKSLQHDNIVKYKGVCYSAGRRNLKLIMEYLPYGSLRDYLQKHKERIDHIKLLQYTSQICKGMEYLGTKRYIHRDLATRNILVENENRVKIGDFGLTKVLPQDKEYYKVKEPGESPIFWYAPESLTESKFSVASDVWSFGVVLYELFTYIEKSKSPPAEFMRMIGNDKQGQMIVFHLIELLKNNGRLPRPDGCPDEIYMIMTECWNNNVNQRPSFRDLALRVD
Tyk2 kinase domain (DH1), sequence (P29597 897-1176): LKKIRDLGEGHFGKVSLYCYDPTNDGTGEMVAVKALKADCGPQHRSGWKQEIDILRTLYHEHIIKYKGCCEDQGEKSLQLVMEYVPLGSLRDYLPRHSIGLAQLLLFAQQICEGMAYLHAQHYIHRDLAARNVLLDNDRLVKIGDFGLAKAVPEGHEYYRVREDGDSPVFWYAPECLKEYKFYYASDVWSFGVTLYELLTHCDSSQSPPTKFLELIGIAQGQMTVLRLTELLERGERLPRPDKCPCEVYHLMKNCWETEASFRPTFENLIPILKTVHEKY

| Kd [1] [nM] | inhibition at 10 µM [2] [%] | inhibition at 10 µM [3] [%] | SMILES | JAK2 JH1% Inhibition @ 10 μM [2] | Tyk2 JH1% Inhibition @ 10 μM [3] |
| --- | --- | --- | --- | --- | --- |
| 1 to 10 | < 50 | < 50 | CNc1cc(Nc2cccn(-c3cnco3)c2=O)nc2c(C(=O)N[C@@H]3CC[C@@H]3O)cnn12 [I-1018] |  |  |
| < 0.2 | < 50 | < 50 | CNc1cc(Nc2cccn(-c3cccc(F)c3)c2=O)nc2c(C(=O)N[C@@H]3CC[C@H]3O)cnn12 [I-1023] |  |  |
| < 0.2 | < 50 | < 50 | CNc1cc(Nc2cccn(-c3cccc(F)c3)c2=O)nc2c(C(=O)N[C@H]3CC[C@@H]3O)cnn12 [I-1024] |  |  |
| < 0.2 | < 50 | < 50 | CNc1cc(Nc2cccn([C@@H]3CCC[C@@H](OC)C3)c2=O)nc2c(C(=O)NC3CC3)cnn12 [I-1026] |  |  |
| 0.2 to 1 | < 50 | < 50 | CNc1cc(Nc2cccn([C@@H]3CCC[C@@H](OC)C3)c2=O)nc2c(C(=O)NCC(C)(C)CO)cnn12 [I-1028] |  |  |
| < 0.2 | < 50 | < 50 | CNc1cc(Nc2cccn([C@H]3CCC[C@H](O)C3)c2=O)nc2c(C(=O)N[C@@H]3C[C@@H]3F)cnn12 [I-1030] |  |  |
| < 0.2 | < 50 | < 50 | CNc1cc(Nc2cccn(C3CCOCC3)c2=O)nc2c(C(=O)NC[C@H](C)CO)cnn12 [I-1031] |  |  |
| 0.2 to 1 | < 50 | < 50 | CNc1cc(Nc2cccn(C3CCOCC3)c2=O)nc2c(C(=O)NC[C@@H](C)CO)cnn12 [I-1032] |  |  |
| < 0.2 | < 50 | < 50 | CNc1cc(Nc2cccn(-c3cccc(F)c3)c2=O)nc2c(C(=O)NC[C@@H](C)CO)cnn12 [I-1033] |  |  |
| < 0.2 | < 50 | < 50 | CNc1cc(Nc2cccn(-c3cccc(F)c3)c2=O)nc2c(C(=O)NC[C@H](C)CO)cnn12 [I-1034] |  |  |
| 0.2 to 1 | < 50 | < 50 | CNc1cc(Nc2cccn(-c3ccccc3F)c2=O)nc2c(C(=O)N[C@@H]3CC[C@@H]3O)cnn12 [I-1036] |  |  |
| 0.2 to 1 | < 50 | < 50 | CNc1cc(Nc2cccn([C@@H]3CCCC[C@@H]3OC)c2=O)nc2c(C(=O)N[C@H]3CC[C@@H]3OC)cnn12 [I-1037] |  |  |
| < 0.2 | < 50 | < 50 | CNc1cc(Nc2cccn(-c3ccccc3F)c2=O)nc2c(C(=O)N[C@@H]3CC[C@H]3O)cnn12 [I-1039] |  |  |
| 0.2 to 1 | < 50 | < 50 | CNc1cc(Nc2cccn([C@H]3CCCN(CCC#N)C3)c2=O)nc2c(C(=O)N[C@@H]3C[C@@H]3F)cnn12 [I-1040] |  |  |
| 0.2 to 1 | < 50 | < 50 | CNc1cc(Nc2cccn([C@@H]3CCCN(CCC#N)C3)c2=O)nc2c(C(=O)N[C@@H]3C[C@@H]3F)cnn12 [I-1041] |  |  |
| 0.2 to 1 | < 50 | < 50 | CNc1cc(Nc2cccn([C@@H]3CCC[C@@H](OC)C3)c2=O)nc2c(C(=O)N[C@@H]3C[C@@H]3F)cnn12 [I-1043] |  |  |
| 0.2 to 1 | < 50 | < 50 | CNc1cc(Nc2cccn([C@H]3CCCC[C@H]3OC)c2=O)nc2c(C(=O)NC3CC3)cnn12 [I-1044] |  |  |
| 0.2 to 1 | < 50 | < 50 | CNc1cc(Nc2cccn([C@H]3CCCC[C@H]3OC)c2=O)nc2c(C(=O)N[C@@H]3C[C@@H]3F)cnn12 [I-1045] |  |  |
| < 0.2 | < 50 | < 50 | CNc1cc(Nc2cccn([C@H]3CCCC[C@H]3OC)c2=O)nc2c(C(=O)NCC(C)(C)CO)cnn12 [I-1046] |  |  |

The next lines start with the compound.

| SMILES | Kd [1] [nM] | inhibition at 10 µM [2] [%] | inhibition at 10 µM [3] [%] | JAK2 JH1% Inhibition @ 10 μM [2] | Tyk2 JH1% Inhibition @ 10 μM [3] |
| --- | --- | --- | --- | --- | --- |
| CNc1cc(Nc2cccn(-c3ccccn3)c2=O)nc2c(C(=O)N[C@@H]3CC[C@H]3O)cnn12 [I-972] | 0.2 to 1 | < 50 | < 50 |  |  |
| CNc1cc(Nc2cccn(C(C)C)c2=O)nc2c(C(=O)N[C@@H]3CC[C@@H]3O)cnn12 [I-978] | 0.2 to 1 | < 50 | < 50 |  |  |
| CNc1cc(Nc2cccn(C(C)C)c2=O)nc2c(C(=O)N[C@H]3CC[C@@H]3O)cnn12 [I-982] | 0.2 to 1 | < 50 | < 50 |  |  |
| CNc1cc(Nc2cccnc2OC2CC2)nc2c(-c3cn(C(C)C)nn3)cnn12 [I-985, N5-(2-cyclopropoxypyridin-3-yl)-3-(1-isopropyl-1H-1,2,3-triazol-4-yl)-N7-methylpyrazolo[1,5-a]pyrimidine-5,7-diamine] | 0.2 to 1 | < 50 | < 50 |  |  |
| CNc1cc(Nc2cccn([C@H]3CCN(CCC#N)C3)c2=O)nc2c(C(=O)N[C@@H]3C[C@@H]3F)cnn12 [I-986] | < 0.2 | < 50 | < 50 |  |  |
| CNc1cc(Nc2cccn([C@@H]3CCN(CCC#N)C3)c2=O)nc2c(C(=O)N[C@@H]3C[C@@H]3F)cnn12 [I-987] | < 0.2 | < 50 | < 50 |  |  |
| CNc1cc(Nc2cccn([C@@H]3CCCC[C@@H]3OC)c2=O)nc2c(C(=O)NC3CC3)cnn12 [I-989] | > 10 | < 50 | < 50 |  |  |
| CNc1cc(Nc2cccn([C@@H]3CCCC[C@@H]3OC)c2=O)nc2c(C(=O)NCC(C)(C)CO)cnn12 [I-990] | 1 to 10 | < 50 | < 50 |  |  |
| CNc1cc(Nc2cccn([C@@H]3CCCC[C@@H]3OC)c2=O)nc2c(C(=O)NCC3(CO)CC3)cnn12 [I-991] | 1 to 10 | < 50 | < 50 |  |  |
| CNc1cc(Nc2cccn([C@H]3CC[C@@H]3OC)c2=O)nc2c(C(=O)N[C@@H]3C[C@@H]3F)cnn12 [I-997] | < 0.2 |  |  | A (percent inhibition at 10 μM lower than 50) | A (percent inhibition at 10 μM lower than 50) |
| CNc1cc(Nc2cccn([C@H]3CC[C@@H]3O)c2=O)nc2c(C(=O)N[C@@H]3C[C@@H]3F)cnn12 [I-998] | < 0.2 |  |  | A (percent inhibition at 10 μM lower than 50) | A (percent inhibition at 10 μM lower than 50) |
| CNc1cc(Nc2cccn(C3CCCCC3)c2=O)nc2c(C(=O)N[C@H]3CC[C@H]3O)cnn12 [I-1001] | 1 to 10 |  |  | A (percent inhibition at 10 μM lower than 50) | A (percent inhibition at 10 μM lower than 50) |
| CNc1cc(Nc2cccn(C3CCCCC3)c2=O)nc2c(C(=O)N[C@H]3CC[C@@H]3O)cnn12 [I-1003] | 0.2 to 1 | < 50 | < 50 |  |  |
| CNc1cc(Nc2cccn(-c3cccc(F)c3)c2=O)nc2c(C(=O)N[C@@H]3CC[C@@H]3O)cnn12 [I-1005] | 0.2 to 1 | < 50 | < 50 |  |  |
| CNc1cc(Nc2cc(Cl)cn(C3CCN(C)CC3)c2=O)nc2c(C(=O)N[C@H]3CC[C@H]3O)cnn12 [I-1006] | < 0.2 | < 50 | < 50 |  |  |
| CNc1cc(Nc2cc(Cl)cn(C3CCN(C)CC3)c2=O)nc2c(C(=O)N[C@@H]3CC[C@@H]3O)cnn12 [I-1007] | 0.2 to 1 | < 50 | < 50 |  |  |
| CNc1cc(Nc2cccnc2OC)nc2c(-c3cn(C(C)C)nn3)cnn12 [I-1008, 3-(1-isopropyl-1H-1,2,3-triazol-4-yl)-N5-(2-methoxypyridin-3-yl)-N7-methylpyrazolo[1,5-a]pyrimidine-5,7-diamine] | < 0.2 | 50 to 70 | < 50 |  |  |
| CNc1cc(Nc2cccn(C3CCCN(CCC#N)C3)c2=O)nc2c(C(=O)NC3CC3)cnn12 (stereo not drawn) [I-1009, 5-((1-(1-(2-cyanoethyl)piperidin-3-yl)-2-oxo-1,2-dihydropyridin-3-yl)amino)-N-cyclopropyl-7-(methylamino)pyrazolo[1,5-a]pyrimidine-3-carboxamide] | 0.2 to 1 | < 50 | < 50 |  |  |
| CNc1cc(Nc2cccn([C@H]3CCN(CCC#N)C3)c2=O)nc2c(C(=O)NC3CC3)cnn12 [I-1011] | 0.2 to 1 | < 50 | < 50 |  |  |
| CNc1cc(Nc2cccn([C@@H]3CCN(CCC#N)C3)c2=O)nc2c(C(=O)NC3CC3)cnn12 [I-1012] | 0.2 to 1 | < 50 | < 50 |  |  |
| CNc1cc(Nc2cccnc2OC)nc2c(C(=O)N[C@H]3CC[C@@]3(C)O)cnn12 [I-1015, N-((1S,2R)-2-hydroxy-2-methylcyclobutyl)-5-((2-methoxypyridin-3-yl)amino)-7-(methylamino)pyrazolo[1,5-a]pyrimidine-3-carboxamide] | 1 to 10 | < 50 | < 50 |  |  |
| CNc1cc(Nc2cccnc2OC)nc2c(C(=O)N[C@@H]3CC[C@]3(C)O)cnn12 [I-1016, N-((1R,2S)-2-hydroxy-2-methylcyclobutyl)-5-((2-methoxypyridin-3-yl)amino)-7-(methylamino)pyrazolo[1,5-a]pyrimidine-3-carboxamide] | 1 to 10 | < 50 | < 50 |  |  |
| CNc1cc(Nc2cccn([C@H]3CC[C@@H]3OC)c2=O)nc2c(C(=O)NC3CC3)cnn12 [I-1019] | 0.2 to 1 | < 50 | < 50 |  |  |
| CNc1cc(Nc2cccn([C@@H]3CC[C@H]3OC)c2=O)nc2c(C(=O)NC3CC3)cnn12 [I-1020] | 0.2 to 1 | < 50 | < 50 |  |  |
